The values that follow come from patent US20230193262A1, “Nucleic acid molecules capable of modulating target gene expression and uses thereof” (KOREA ADVANCED INSTITUTE OF SCIENCE AND TECHNOLOGY, priority 2021, published 2023).

Entries after “also recorded” stand apart in the source; their conditions may differ. In the oligonucleotide strings, read from the 5' end, every base follows the letter of its sugar. An asterisk marks phosphorothioate; unmarked linkages are phosphodiester. Other units and linkages are bracketed, terminal groups are in braces. A string of capitals states the bases alone. d = 2'-deoxy (DNA)

Common to all, as to assay type: cell-based
One data set has as its system cells. The data set can be described thus: Cytotoxicity (CCK-8 cell viability) of chemically modified miRNA triggers. The method, then: (§1) The miRNA triggers were assayed for cytotoxicity and apoptosis induction, using the CCK-8 (Cell Counting Kit-8) (Dojindo, Kumamoto, Japan) according to the manufacturer's instruction. Cells were incubated in 96-well plates (5×10^3 cells/well) at 37° C. for 24 hours under a 5% CO2 atmosphere, followed by transfection. Three days after transfection, the medium was removed. A 10-fold dilution of CCK-8 solution in DMEM was added to the cells which were then incubated at 37° C. for 2 hours. After incubation, absorbance was read at 450 nm on Tecan Infinite M200 pro microplate reader (Mnnedorf, Switzerland).
In addition, FPS HP and 2′-OMe HP, which were the most resistant to degradation in biological samples, were analyzed for cytotoxicity. In this regard, the HP in which the entire nucleotides of miRNA trigger (LP) were modified with PS (expressed as PS in Table 6 and FIG. 6), the linear probe in which the entire nucleotides of miRNA trigger (LP) were modified with 2′-O-Me (expressed as 2′O-me in Table 6 and FIG. 6), the control DNA LP (expressed as DNA in Table 6 and FIG. 6), or siRNA was transfected into cells which were then measured for cell viability using the method of Reference Example 9. The result is depicted in FIG. 6. […]

The subject of the next data set is miR-155. The data set can be described thus: miR-155 expression after treatment with AML therapeutic agents. Conditions: FLT3-ITD mutated AML cell line (NOLM-14); IC50 dose, 37° C., 72 hours. How it is done:
The FLT3-ITD mutated AML cell line (NOLM-14) was treated with an IC50 dose of cytarabine, azacitidine, decitabine, venetoclax, or gilteritinib, which is used as standard therapeutic agents for AML, at 37° C. for 72 hours, followed by measuring expression levels of miR-155.

For data set [1], the system named is MCF-7 breast cancer cells. Put plainly: Cell viability / apoptosis in MCF-7. The following applies: single siRNA, final concentration 60 nM. How it is done: as §1
An siRNA targeting bcl-2, bcl-xL, or mcl-1 was transfected into MCF-7 breast cancer cells and PANC-1 pancreatic cancer cells. By using qRT-PCR, establishment was made of a condition under which the expression of each target gene is decreased by 80% or more (transfection was performed at a concentration of 60 nM with the aid of Lipofectamine). As a negative control, a Luc (Luciferase)-targeting siRNA (siLuc) was used. Under the same condition of decreasing the expression of each target gene by 80% or more, the cells transfected with the siRNAs were measured for apoptosis, and the results are depicted in FIGS. 14a and 14b.
Linear miRNA triggers that could bind to miR-141 or let7f and target bcl-xL or mcl-1 were prepared and transfected alone or in combination into the breast cancer cell line MCF-7 which was then measured for cell viability. Every nucleotide of the triggers and controls was chemically modified with 2′-OMe.
First, MCF-7 was measured for cell viability after treatment with siMCL-1, siBCL-xL, and siBCL-2 (FIG. 48). […] The final concentration of the siRNAs was 60 nM.
Next, examination was made of the apoptosis when two or more genes were regulated together. MCF-7 was measured for cell viability after treatment with siMCL-1+siBCL-xL, siMCL-1+siBCL-2, siBCL-xL+siBCL-2, and siMCL-1+siBCL-xL+siBCL-2 (FIG. 49).
Finally, experiments under all the conditions (individual and simultaneous regulation) were conducted simultaneously so as to compare effects thereof. […]

Another data set has as its system GFP mRNA. The data set can be described thus: GFP fluorescence intensity in GFP-expressing Hela-141 cells. Conditions: siGFP compared to siLuc, trigger 30 to 60 nM. The text has this: A GFP fluorescent protein-expressing plasmid (used in Chen L L, DeCerbo J N, Carmichael G G. 2008. Alu element-mediated gene silencing. EMBO J 27: 1694-1705) was transfected into Hela-141 cells to prepare GFP-expressing Hela-141 cells. As stated in Reference Example 1, a linear miRNA trigger (LP; GFP_141_141), which can target GFP mRNA (=complementarily bind to GFP mRNA to regulate the expression of GFP) and complementarily bind to miR-141, and siRNAs which target GFP and Luc (Luciferase), respectively, were synthesized in Bioneer Inc. Sequences of the LP and siRNAs and types and positions of chemical modifications in each sequence are listed in Table 8, below.
Above all, siLuc and siGFP were transfected into the GFP-expressing Hela-141 cells which were then measured for fluorescence intensity on an ELISA reader. […] In addition, the linear miRNA trigger (GFP(1)_141_141) was transfected into the GFP-expressing Hela-141 cells which were then measured for fluorescence intensity. The result is depicted in FIG. 8. For the transfection, the GFP plasmid and GFP_141_141 were used at a concentration of 0.5 to 1 μg/ml and 30 to 60 nM, respectively.

In the next data set the test system is Hela cells. Put plainly: Cell viability / apoptosis (CCK-8) in Hela cells. How it is done:
as §1
(§2) The linear miRNA triggers or siRNAs (siLuc and siMcl-1) prepared above were transfected into Hela, Hela-141, and Hela-200c cells which were then measured for cell viability. The results are depicted in FIG. 15.
(§3) The hairpin miRNA triggers prepared above were transfected into Hela and Hela-141 cells which were then assayed for apoptosis. As a control, the siRNA (siMcl-1; Table 14) which can repress the expression of mcl-1 was transfected to Hela and Hela-141 cells and measured for apoptotic activity.

For the next data set, the system named is Hela-200c cells. The data set can be described thus: Cell viability / apoptosis (CCK-8) in Hela-200c cells. How it is done: as §1, §2
For the next data set, the system named is Hela-141 cells. Put plainly: Cell viability / apoptosis (CCK-8) in Hela-141 cells. Conditions: Hela-141 cells. How it is done: as §1, §2, §3

In the case of “2′-O-Me: linear probe, entire nucleotides modified with 2′-O-Me; SEQ ID NO 38 (UCGAAGUACUCAGCGUAAGUUCGAAGUACUCAGCGUAAGUUCGAAGUACUCAGCGUAAGU; all 2'-O-methyl, backbone not given here)”, in the data set with cells (CCK-8), the “cell viability versus non-transfected negative control (NT)” value is on record as “not significantly different in viability from the negative control”.

In the case of `Nc1ncn([C@@H]2O[C@H](CO)[C@@H](O)[C@H]2O)c(=O)n1` [azacitidine], the miR-155 expression entry in the data set with miR-155 is on record as “did not repress miR-155 express”.

Consider `Nc1ccn([C@@H]2O[C@H](CO)[C@@H](O)[C@@H]2O)c(=O)n1` [cytarabine], for which the miR-155 expression result with miR-155 is given as “did not repress miR-155 express”.

Consider “PS: miRNA trigger (LP), entire nucleotides modified with PS, random sequences; SEQ ID NO 37 (dT*dC*dG*dA*dA*dG*dT*dA*dC*dT*dC*dA*dG*dC*dG*dT*dA*dA*dG*dT*dT*dC*dG*dA*dA*dG*dT*dA*dC*dT*dC*dA*dG*dC*dG*dT*dA*dA*dG*dT*dT*dC*dG*dA*dA*dG*dT*dA*dC*dT*dC*dA*dG*dC*dG*dT*dA*dA*dG*dT)”, for which the cell viability result in the data set on cells (transfected cells, CCK-8, random sequences) is “less than 40%”.

Consider “siBcl-xL: siRNA targeting bcl-xL; SEQ ID NO 63 (UUGGUCCCUCAGUAUGGUC; listed as RNA, chemistry not given here)”, for which the “apoptosis (cell viability)” value in data set [1] is on record as “apoptosis was detected”.

In the case of “siGFP: siRNA which targets GFP; SEQ ID NO 44 (UUAUGUUUCAGGUUCAGGG; RNA, backbone not given here) [reference compound]”, the GFP fluorescence intensity result with GFP mRNA is “significantly reduced fluorescence intensity”.

Consider “siMcl-1: siRNA targeting mcl-1; SEQ ID NO 64 (AAAUUCGAUACUUCCUUCG; listed as RNA, chemistry not given here) [reference compound]”, for which the “apoptosis / cell viability” value is listed as “induced apoptosis; also recorded: apoptotic effect” with Hela cells, “induced apoptosis” in the data set with Hela-200c cells and “induced apoptosis; also recorded: apoptotic effect” with Hela-141 cells. The “apoptosis (cell viability)” value in data set [1] was “apoptosis was detected; also recorded: greatest apoptosis”.

B1: GFP(1)_141_141: linear miRNA trigger targeting GFP mRNA and binding miR-141; SEQ ID NO 41 (nucleic acid)
chain: CCAUCUUUACCUCACAGUGUUACCAUCUUUACCUCACAGUGUUAUUAUGUUUCAGGUUCAGGGGGA
modifications: all 2'-O-methyl, backbone not given here
Consider B1, for which, in the data set with GFP mRNA, the GFP fluorescence intensity result was “reduced GFP fluorescence intensity in a dose-dependent manner”.
